Tested on: adult patients with nocturia
Assay: Number of nocturnal voids, change from baseline to Day 28 (Study CS29 Part I)
Format: in vivo, human
Conditions: for fewer nocturnal urinary voids per night compared to baseline before treatment (median): Day 28; for Change from baseline to final visit (Day 28) of nocturnal voids, mean / Change from baseline to final visit (Day 28) of nocturnal voids, median: ITT, Part I
Description: The term “nocturnal void” as used herein refers to a void occurring from 5 minutes after bedtime until rising in the morning with the intention of getting up.
All treatments were administered orally once per night approximately 1 hour prior to bedtime; subjects were instructed to limit their fluid intake prior to drug self-administration. […] Randomization was to be stratified by age (<65, ≥65 years) and by the absence/presence of nocturnal polyuria, defined as a ratio of nighttime urine volume/24-hour urine volume 33%. To achieve the desired number of subjects within each stratum, enrollment of subjects in a particular stratum (age and/or presence/absence of nocturnal polyuria) could be halted. If this was necessary, all investigative sites were to be informed in writing at least 1 week in advance to stop screening in a population of subjects.
A total of 750 subjects were planned to be enrolled, with approximately 150 subjects per treatment group. Part I of the study was conducted in 7 visits. Screening (Visit 1) occurred within 21 days of dosing (Day 1, Visit 2); subjects returned for follow-up visits on Days 4, 8, 15, 22, and 28 (end of Part I). Duration of treatment in Part I was 28 days.
Subjects who met the following inclusion criteria were eligible for the study: provided written informed consent prior to the performance of any study-related activity, defined as any procedure that would not have been performed during the normal management of the subject; and was a male or female subject, 18 years of age and older, with an average of ≥2 nocturnal voids per night determined via a 3-day frequency-volume chart during the screening period
All treatments were administered orally once per night approximately 1 hour prior to bedtime. Subjects were instructed to place the tablet under their tongue, without water. Subjects were provided with sufficient study drug for the duration of Part I.
The primary endpoints for efficacy assessment were: (1) change in mean number of nocturnal voids from baseline evaluation to final visit (Day 28); and (2) proportion of subjects with >33% reduction in the mean number of nocturnal voids from baseline to final visit (Day 28). A further description and corresponding data directed to the second primary endpoint (i.e., portion of subjects with >33% reduction in the mean number of nocturnal voids) are not provided herein.
Of the 799 randomized subjects in Part I, 757 subjects who received at least 1 dose of study drug and had follow-up data were included in the intent to treat (ITT) analysis dataset. […] All 799 randomized subjects received at least 1 dose of study drug (desmopressin or placebo) and had at least 1 safety assessment and, therefore, were included in the safety analysis dataset.
Missing values concerning number of nocturnal voids at Day 8, Day 15, Day 22, and Day 28 in Part I were imputed using last observation carried forward (LOCF). Missing values concerning sleep disturbance and urine volume (for average 24-hour urine volume and average nocturnal urine volume) were not imputed.

[1] = 10 ug, all males with monitoring
[2] = 10 ug, females over 50 years of age
[3] = 10 ug, females over 65 years of age
[4] = 25 ug, all males with monitoring
[5] = 25 ug, females over 50 years of age
[6] = 25 ug, females over 65 years of age
[7] = 50 ug, all males with monitoring
[8] = 50 ug, females over 50 years of age
[9] = 50 ug, females over 65 years of age
[10] = 100 ug, all males with monitoring
[11] = 100 ug, females over 50 years of age
[12] = 100 ug, females over 65 years of age

Question: `NC(=O)CC[C@@H]1NC(=O)[C@H](Cc2ccccc2)NC(=O)[C@H](Cc2ccc(O)cc2)NC(=O)CCSSC[C@@H](C(=O)N2CCC[C@H]2C(=O)N[C@H](CCCN=C(N)N)C(=O)NCC(N)=O)NC(=O)[C@H](CC(N)=O)NC1=O` [desmopressin] was tested. Which “fewer nocturnal urinary voids per night compared to baseline before treatment (median)” value (10 μg, all females) did it give?
Answer: The value was “at least 1.0 voids per night”.

Question: And the “Change from baseline to final visit (Day 28) of nocturnal voids, mean” value (from here on “Change from baseline to final visit … mean”) (10 ug, all females)?
Answer: Its value is −1.15.

Question: What about the “Change from baseline to final visit (Day 28) of nocturnal voids, median” value (“Change from baseline to final visit … median” for short) (10 ug, all females) of the same compound?
Answer: The value was −1.00.

Question: And the “Change from baseline to final visit … mean” value (10 ug, all groups)?
Answer: Its value is −0.83.

Question: What about the “Change from baseline to final visit … median” value (10 ug, all groups) of the same compound?
Answer: The value was −0.67.

Question: And the “Change from baseline to final visit … mean” value [1]?
Answer: Its value is −0.66.

Question: What about the “Change from baseline to final visit … median” value [1] of the same compound?
Answer: The value was −0.67.

Question: What about the “Change from baseline to final visit … mean” value (10 ug, all males) of the same compound?
Answer: Its value is −0.54.

Question: What about the “Change from baseline to final visit … median” value (10 ug, all males) of the same compound?
Answer: The value was −0.67.

Question: What about the “fewer nocturnal urinary voids per night compared to baseline before treatment (median)” value (10 μg, females over 50 years of age) of the same compound?
Answer: The value was “at least 1.0 voids per night”.

Question: What about the “Change from baseline to final visit … mean” value [2] of the same compound?
Answer: The value was −1.08.

Question: And the “Change from baseline to final visit … median” value [2]?
Answer: The value was −1.00.

Question: And the “Change from baseline to final visit … mean” value [3]?
Answer: Its value is −0.93.

Question: And the “Change from baseline to final visit … median” value [3]?
Answer: Its value is −0.67.

Question: What about the “fewer nocturnal urinary voids per night compared to baseline before treatment (median)” value (25 μg, all females) of the same compound?
Answer: The value was “at least 1.0 voids per night”.

Question: And the “Change from baseline to final visit … mean” value (25 ug, all females)?
Answer: The value was −1.22.

Question: And the “Change from baseline to final visit … median” value (25 ug, all females)?
Answer: The value was −1.33.

Question: And the “Change from baseline to final visit … mean” value (25 ug, all groups)?
Answer: Its value is −1.00.

Question: What about the “Change from baseline to final visit … median” value (25 ug, all groups) of the same compound?
Answer: Its value is −1.00.

Question: And the “Change from baseline to final visit … mean” value [4]?
Answer: Its value is −0.91.

Question: What about the “Change from baseline to final visit … median” value [4] of the same compound?
Answer: Its value is −0.67.

Question: What about the “Change from baseline to final visit … mean” value (25 ug, all males) of the same compound?
Answer: Its value is −0.83.

Question: And the “Change from baseline to final visit … median” value (25 ug, all males)?
Answer: Its value is −0.67.

Question: And the “fewer nocturnal urinary voids per night compared to baseline before treatment (median)” value (25 μg, females over 50 years of age)?
Answer: The value was “at least 1.0 voids per night”.

Question: What about the “Change from baseline to final visit … mean” value [5] of the same compound?
Answer: Its value is −1.35.

Question: And the “Change from baseline to final visit … median” value [5]?
Answer: The value was −1.33.

Question: And the “fewer nocturnal urinary voids per night compared to baseline before treatment (median)” value (25 μg, females over 65 years of age)?
Answer: The value was “at least 1.67 voids per night”.

Question: What about the “Change from baseline to final visit … mean” value [6] of the same compound?
Answer: Its value is −1.27.

Question: What about the “Change from baseline to final visit … median” value [6] of the same compound?
Answer: The value was −1.67.

Question: And the “proportion of subjects with >75% reductions in the mean number of nocturnal voids” value (50 μg, Day 28 (placebo 5%))?
Answer: Its value is 10%.

Question: And the “proportion of subjects with >50% reductions in the mean number of nocturnal voids” value (50 μg, Day 28 (placebo 20%))?
Answer: The value was 28%.

Question: What about the “proportion of subjects with >33% reductions in the mean number of nocturnal voids” value (50 μg, Day 28 (placebo 47%)) of the same compound?
Answer: Its value is 53%.

Question: And the “Change from baseline to final visit … mean” value (50 ug, all females)?
Answer: Its value is −1.23.

Question: What about the “Change from baseline to final visit … median” value (50 ug, all females) of the same compound?
Answer: The value was −1.00.

Question: What about the “Change from baseline to final visit … mean” value (50 ug, all groups) of the same compound?
Answer: The value was −1.18.

Question: And the “Change from baseline to final visit … median” value (50 ug, all groups)?
Answer: Its value is −1.00.

Question: What about the “Change from baseline to final visit … mean” value [7] of the same compound?
Answer: Its value is −1.09.

Question: And the “Change from baseline to final visit … median” value [7]?
Answer: The value was −1.00.

Question: And the “Change from baseline to final visit … mean” value (50 ug, all males)?
Answer: Its value is −1.13.

Question: And the “Change from baseline to final visit … median” value (50 ug, all males)?
Answer: The value was −1.00.

Question: What about the “Change from baseline to final visit … mean” value [8] of the same compound?
Answer: The value was −1.15.

Question: What about the “Change from baseline to final visit … median” value [8] of the same compound?
Answer: Its value is −1.00.

Question: And the “Change from baseline to final visit … mean” value [9]?
Answer: The value was −0.97.

Question: What about the “Change from baseline to final visit … median” value [9] of the same compound?
Answer: Its value is −1.00.

Question: What about the “Change from baseline to final visit … mean” value (100 ug, all females) of the same compound?
Answer: Its value is −1.51.

Question: And the “Change from baseline to final visit … median” value (100 ug, all females)?
Answer: Its value is −1.33.

Question: And the “Change from baseline to final visit … mean” value (100 ug, all groups)?
Answer: Its value is −1.43.

Question: And the “Change from baseline to final visit … median” value (100 ug, all groups)?
Answer: The value was −1.33.

Question: And the “Change from baseline to final visit … mean” value [10]?
Answer: Its value is −1.41.

Question: And the “Change from baseline to final visit … median” value [10]?
Answer: Its value is −1.67.

Question: What about the “Change from baseline to final visit … mean” value (100 ug, all males) of the same compound?
Answer: Its value is −1.38.

Question: And the “Change from baseline to final visit … median” value (100 ug, all males)?
Answer: Its value is −1.33.

Question: And the “Change from baseline to final visit … mean” value [11]?
Answer: The value was −1.44.

Question: What about the “Change from baseline to final visit … median” value [11] of the same compound?
Answer: The value was −1.33.

Question: And the “Change from baseline to final visit … mean” value [12]?
Answer: The value was −1.00.

Question: And the “Change from baseline to final visit … median” value [12]?
Answer: Its value is −1.00.

Reference: patent publication US11963995B2, “Methods comprising desmopressin” (Ferring B.V., priority 2008, dated 2024)
